Results on 3 compounds are retold here after ChEMBL document CHEMBL2163343, “Sesquiterpene lactones from Tithonia diversifolia act as peroxisome proliferator-activated receptor agonists” (Bioorg Med Chem Lett, 2012).

SMILES strings stand for the structures. pIC50: −log10 of the molar value.

Experiment [1] deals with T1, Peroxisome proliferator-activated receptor alpha (Homo sapiens) (UniProt Q07869).
T1 sequence (whole entry): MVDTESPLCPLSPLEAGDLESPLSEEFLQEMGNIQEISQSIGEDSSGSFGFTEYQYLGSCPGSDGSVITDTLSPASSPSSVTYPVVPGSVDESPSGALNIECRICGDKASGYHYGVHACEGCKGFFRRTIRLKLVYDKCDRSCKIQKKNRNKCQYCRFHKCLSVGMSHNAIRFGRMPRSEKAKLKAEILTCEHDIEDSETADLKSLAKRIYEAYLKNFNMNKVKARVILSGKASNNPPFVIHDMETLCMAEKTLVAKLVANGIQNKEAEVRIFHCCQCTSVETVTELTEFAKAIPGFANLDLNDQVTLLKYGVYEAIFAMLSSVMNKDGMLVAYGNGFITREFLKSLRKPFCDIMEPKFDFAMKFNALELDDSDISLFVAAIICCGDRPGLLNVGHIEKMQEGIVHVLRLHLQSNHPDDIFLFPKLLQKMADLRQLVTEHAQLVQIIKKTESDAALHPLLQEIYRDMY
The experiment in a line: Transactivation of PPARalpha expressed in human HepG2 cells assessed as Sult2a1 expression at 10 uM by luciferase reporter gene assay relative to vehicle-treated control. In kind it is cell-based. On the technique in general: Reporter assays use an easily measured gene product as a stand-in for the process of interest.

For experiment [2], the target named is T1, Peroxisome proliferator-activated receptor alpha (Homo sapiens). The experiment in a line: Transactivation of PPARalpha expressed in human HepG2 cells assessed as Sult2a1 expression at 100 nM by luciferase reporter gene assay relative to vehicle-treated control. In kind it is cell-based.
Experiment [3] deals with T2, Peroxisome proliferator-activated receptor gamma (Homo sapiens) (UniProt P37231).
T2 sequence (whole entry): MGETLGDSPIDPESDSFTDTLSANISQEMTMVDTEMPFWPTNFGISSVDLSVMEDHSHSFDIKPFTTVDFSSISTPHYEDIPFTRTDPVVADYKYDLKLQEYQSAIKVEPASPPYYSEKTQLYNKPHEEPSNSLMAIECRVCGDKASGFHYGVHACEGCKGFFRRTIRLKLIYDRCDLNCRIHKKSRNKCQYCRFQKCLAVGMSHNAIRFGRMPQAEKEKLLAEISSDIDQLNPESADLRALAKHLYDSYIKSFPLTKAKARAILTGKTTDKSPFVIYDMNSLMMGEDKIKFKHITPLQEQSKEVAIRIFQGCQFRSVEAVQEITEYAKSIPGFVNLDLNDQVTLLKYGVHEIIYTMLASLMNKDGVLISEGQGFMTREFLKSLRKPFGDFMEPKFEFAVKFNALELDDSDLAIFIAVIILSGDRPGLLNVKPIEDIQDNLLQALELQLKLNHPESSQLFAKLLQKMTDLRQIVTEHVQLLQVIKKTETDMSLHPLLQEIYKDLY
The experiment in a line: Agonist activity at human PPARgamma expressed in human HEK293 cells assessed as ABCA1 promoter transactivation at 1 uM by luciferase reporter gene assay relative to vehicle-treated control. It is filed as functional, cell-based.

Experiment [4] addresses T2, Peroxisome proliferator-activated receptor gamma (Homo sapiens). The experiment in a line: Agonist activity at human PPARgamma expressed in human HEK293 cells assessed as SHP promoter transactivation at 1 uM by luciferase reporter gene assay relative to vehicle-treated control. It is filed as functional, cell-based.
For experiment [5] the target is unchanged. The experiment in a line: Agonist activity at human PPARgamma expressed in human HEK293 cells assessed as ABCA1 promoter transactivation by luciferase reporter gene assay relative to vehicle-treated control. It is filed as functional, cell-based.
The target in experiment [6] is T3, Peroxisome proliferator-activated receptor gamma (Homo sapiens, UniProt P37231).
T3 sequence (P37231 whole entry): T2 sequence (whole entry)
The experiment in a line: Inhibition of fluormone binding to human PPARgamma LBD after 2 hrs by competitive fluorescence polarization assay.

The target of experiment [7] is T2, Peroxisome proliferator-activated receptor gamma (Homo sapiens). The experiment in a line: Agonist activity at human PPARgamma expressed in human HEK293 cells at 10 uM by luciferase reporter gene assay relative to vehicle-treated control. It is filed as functional, cell-based.
Experiment [8] has the same target. The experiment in a line: Agonist activity at human PPARgamma expressed in human HEK293 cells assessed as SHP promoter transactivation by luciferase reporter gene assay relative to vehicle-treated control. It is filed as functional, cell-based.
The target is the same in experiment [9]. The experiment in a line: Agonist activity at human PPARgamma expressed in human HEK293 cells assessed as SHP promoter transactivation at 10 uM by luciferase reporter gene assay relative to vehicle-treated control. In kind it is functional, cell-based.
For experiment [10] the target is unchanged. The experiment in a line: Agonist activity at human PPARgamma expressed in human HEK293 cells assessed as ABCA1 promoter transactivation at 10 uM by luciferase reporter gene assay relative to vehicle-treated control. It is filed as functional, cell-based.
The target is the same in experiment [11]. The settings on record: HEK293.
Description: Agonist activity at human PPARgamma expressed in human HEK293 cells assessed as ABCA1 promoter transactivation at 100 nM by luciferase reporter gene assay relative to vehicle-treated control

As to `CCOC(=O)C(C)(C)Oc1ccc(Cl)cc1`, the RLU in experiment [1] amounted to 2.44.

With `C=C1C(=O)O[C@@H]2C[C@H](C)[C@@]3(O)C[C@H](O)[C@@](C)(C[C@@H](OC(=O)C(C)C)[C@@H]12)O3` [TAGITININ A], the RLU in [2] amounted to 1.4; in [3], 2.1; in [4] it was 2.8; in experiment [1], 2.47; in experiment [7], 1.5; in experiment [9], 3.5. Besides, the RLU in [10] amounted to 2.9. The Activity result in experiment [5] and in experiment [8] was “Dose-dependent effect” each time. Besides, the pIC50 (commonly the negative decadic logarithm of the IC50, by convention in mol/L) in [6] is 4.26.

Consider `C=C1C(=O)O[C@@H]2C[C@H](C)[C@@]3(O)CC[C@@](C)(C[C@@H](OC(=O)C(C)C)[C@@H]12)O3` [TIROTUNDIN], for which the RLU in experiment [2] turned out to be 1.4; in experiment [3], 2.1; in experiment [1], 2.33; in [7], 2; in experiment [9], 3.4; in experiment [11], 1.6. In addition, in experiment [10], the RLU was 3.1. Further, the Activity result in [5] and in experiment [8] was “Dose-dependent effect” throughout. Moreover, the pIC50 in experiment [6] was 4.57.
